One series deals with Aβtotal. In words: Screening for γ-secretase-modulating activity: Aβtotal in supernatant of SKNBE2 cells carrying hAPP 695 wild type (Alphalisa). The following applies: overnight incubation, Alphalisa on supernatant. In kind it is cell-based, human. In outline: (§1)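 Secreted Aβ42 (C-terminal/N-terminal antibody pair) and Aβtotal (N-terminal/mid-region pair) were quantified by AlphaLISA after overnight compound exposure of wild-type hAPP 695 SKNBE2 cells at 37 °C. Values expressed relative to compound-free maximum, with IC50 from nonlinear 4-parameter regression.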
On the technique in general: Bead proximity is the source of the signal in Alpha formats.

For another series, the system named is Aβ42. In words: Screening for γ-secretase-modulating activity: Aβ42 in supernatant of SKNBE2 cells carrying hAPP 695 wild type (Alphalisa). The class given is cell-based, human. The following applies: overnight incubation, Alphalisa on supernatant. An outline of the steps: as §1
Setting [1] is: Homo sapiens, SKNBE2, SKNBE2 human neuroblastoma cells carrying hAPP 695 wild type.
The mark [2] stands for this setting: SKNBE2 human neuroblastoma cells carrying hAPP 695 wild type.

SMILES strings stand for the structures.

The term IC50 denotes the midpoint of a concentration-inhibition curve. As usually defined, the melting point is the temperature of the solid-liquid transition. `Cc1cc(F)ccc1C1OCCn2nc(-c3cc4cc(C#N)ccc4[nH]3)nc21` (single isomer, unassigned) [Compound 97, 2-[8-(4-fluoro-2-methylphenyl)-5,6-dihydro-8H-[1,2,4]triazolo[5,1-c][1,4]oxazin-2-yl]-1H-indole-5-carbonitrile] returned a melting point of 255 °C. The same molecule displayed a half-inhibitory concentration (IC50) in the series with Aβtotal (setting [1]) greater than 10000 nM. The same molecule showed an IC50 in the series with Aβ42 (setting [2]) of 219 nM.
In turn, `Cc1cc(F)ccc1C1OCCn2nc(-c3cc4cc(C#N)ccc4[nH]3)nc21` (single isomer, unassigned) [Compound 98, 2-[8-(4-fluoro-2-methylphenyl)-5,6-dihydro-8H-[1,2,4]triazolo[5,1-c][1,4]oxazin-2-yl]-1H-indole-5-carbonitrile] came in with a melting point of 253.5 °C. In the series on Aβtotal (setting [2]), this molecule registered an IC50 greater than 10000 nM. Also, in the series with Aβ42 (setting [2]), 5500 nM corresponded to half-maximal inhibition (IC50).
In turn, `Cc1cn(-c2ccc3[nH]c(-c4nc5n(n4)CCOC5c4ccc(F)cc4C)cc3c2)cn1` (single isomer, unassigned) [Compound 109, 8-(4-fluoro-2-methylphenyl)-5,6-dihydro-2-[5-(4-methyl-1H-imidazol-1-yl)-1H-indol-2-yl]-8H-[1,2,4]triazolo[5,1-c][1,4]oxazine] gave a melting point of 278.9 °C. This molecule came in with an IC50 in the series on Aβtotal (setting [1]) greater than 10000 nM. In the series on Aβ42 (setting [2]), this molecule gave a half-inhibitory concentration (IC50) of 537 nM.
Molecule `Cc1cn(-c2ccc3[nH]c(-c4nc5n(n4)CCOC5c4ccc(F)cc4C)cc3c2)cn1` (single isomer, unassigned) [Compound 110, 8-(4-fluoro-2-methylphenyl)-5,6-dihydro-2-[5-(4-methyl-1H-imidazol-1-yl)-1H-indol-2-yl]-8H-[1,2,4]triazolo[5,1-c][1,4]oxazine] displayed a melting point of 278 °C. The same molecule returned an IC50 in the series with Aβtotal (setting [2]) greater than 10000 nM. In the series with Aβ42 (setting [2]), this molecule displayed an IC50 of 36 nM.
Regarding `Cc1c(F)cccc1C1OCCn2nc(-c3cc4cc(C#N)ccc4[nH]3)nc21` (centres unmarked) [Compound 1, 2-[8-(3-fluoro-2-methylphenyl)-5,6-dihydro-8H-[1,2,4]triazolo[5,1-c][1,4]oxazin-2-yl]-1H-indole-5-carbonitrile], the melting point turned out to be 225.2 °C. Besides, the IC50 in the series with Aβtotal (setting [1]) was greater than 10000 nM. The molecule also came in with an IC50 with Aβ42 (setting [1]) of 295 nM.
As to `COc1ccccc1C1CCCn2nc(-c3cc4cc(C#N)ccc4[nH]3)nc21` (centres unmarked) [Compound 19, 2-[5,6,7,8-tetrahydro-8-(2-methoxyphenyl)[1,2,4]triazolo[1,5-a]pyridin-2-yl]-1H-indole-5-carbonitrile], the melting point is 139.6 °C. For the same molecule, in the series on Aβtotal (setting [1]), the IC50 was greater than 10000 nM. The molecule also came in with an IC50 in the series with Aβ42 (setting [1]) of 661 nM.
For `N#Cc1ccc2[nH]c(-c3nc4n(n3)CCCC4c3cc(C(F)(F)F)ccc3F)cc2c1` (centres unmarked) [Compound 21, 2-[8-[2-fluoro-5-(trifluoromethyl)phenyl]-5,6,7,8-tetrahydro[1,2,4]triazolo[1,5-a]pyridin-2-yl]-1H-indole-5-carbonitrile], the melting point was 184.3 °C. The IC50 in the series on Aβtotal (setting [1]) was greater than 10000 nM. In the series with Aβ42 (setting [1]), this molecule had a concentration for half-maximal inhibition (IC50) of 355 nM.
`N#Cc1ccc2[nH]c(-c3nc4n(n3)CCCC4c3ccc(F)cc3C(F)(F)F)cc2c1` (centres unmarked) [Compound 22, 2-[8-[4-fluoro-2-(trifluoromethyl)phenyl]-5,6,7,8-tetrahydro[1,2,4]triazolo[1,5-a]pyridin-2-yl]-1H-indole-5-carbonitrile] displayed a melting point of 265 °C. The molecule further came in with an IC50 with Aβtotal (setting [1]) greater than 10000 nM. Also, the IC50 in the series with Aβ42 (setting [1]) is 138 nM.
For the molecule `Cc1ccccc1C1CCCn2nc(-c3cc4nc(C#N)ccc4[nH]3)nc21` (centres unmarked) [Compound 25, 2-[5,6,7,8-tetrahydro-8-(2-methylphenyl)[1,2,4]triazolo[1,5-a]pyridin-2-yl]-1H-pyrrolo[3,2-b]pyridine-5-carbonitrile], the melting point stood at 264.9 °C. The molecule also gave an IC50 with Aβtotal (setting [1]) greater than 10000 nM. The midpoint of inhibition in the series with Aβ42 (setting [1]), the IC50, lay at 398 nM.
As for `N#Cc1ccc2[nH]c(-c3nc4n(n3)CCCC4c3ccccc3C(F)(F)F)cc2n1` (centres unmarked) [Compound 26, 2-[5,6,7,8-tetrahydro-8-[2-(trifluoromethyl)phenyl][1,2,4]triazolo[1,5-a]pyridin-2-yl]-1H-pyrrolo[3,2-b]pyridine-5-carbonitrile], the melting point was determined as 272.3 °C. The half-inhibitory concentration (IC50) with Aβtotal (setting [1]) was greater than 10000 nM. Besides, the IC50 in the series on Aβ42 (setting [1]) came to 331 nM.
`COc1ccc2[nH]c(-c3nc4n(n3)CCCC4c3ccccc3C(F)(F)F)cc2c1` (centres unmarked) [Compound 29, 5,6,7,8-tetrahydro-2-(5-methoxy-1H-indol-2-yl)-8-[2-(trifluoromethyl)phenyl]-[1,2,4]triazolo[1,5-a]pyridine] displayed a melting point of 183 °C. In addition, in the series on Aβtotal (setting [1]), the concentration for half-maximal inhibition (IC50) was greater than 15100 nM. In addition, in the series with Aβ42 (setting [1]), the half-maximal inhibitory concentration (IC50) was determined as 4790 nM.
In turn, `Cc1ccccc1C1CCCn2nc(-c3cc4cc(-c5cnn(C)c5)ccc4[nH]3)nc21` (centres unmarked) [Compound 31, 5,6,7,8-tetrahydro-8-(2-methylphenyl)-2-[5-(1-methyl-1H-pyrazol-4-yl)-1H-indol-2-yl]-[1,2,4]triazolo[1,5-a]pyridine] registered a melting point of 223.8 °C. In the series on Aβtotal (setting [1]), the IC50 is greater than 10000 nM. The same molecule returned a half-maximal inhibitory concentration (IC50) in the series with Aβ42 (setting [1]) of 76 nM.
With `Cc1cc(F)ccc1C1CCCn2nc(-c3cc4nc(-c5cnn(C)c5)ccc4[nH]3)nc21` (centres unmarked) [Compound 32, 8-(4-fluoro-2-methylphenyl)-5,6,7,8-tetrahydro-2-[5-(1-methyl-1H-pyrazol-4-yl)-1H-pyrrolo[3,2-b]pyridin-2-yl]-[1,2,4]triazolo[1,5-a]pyridine], the melting point was 281.7 °C. For the same molecule, the 50% inhibitory concentration (IC50) in the series on Aβtotal (setting [1]) was greater than 10000 nM. Further, the IC50 in the series with Aβ42 (setting [2]) came out at 148 nM.
Take `Cc1cc(-c2ccc3[nH]c(-c4nc5n(n4)CCCC5c4ccc(F)cc4C)cc3n2)ccn1` (centres unmarked) [Compound 33, 8-(4-fluoro-2-methylphenyl)-5,6,7,8-tetrahydro-2-[5-(2-methyl-4-pyridinyl)-1H-pyrrolo[3,2-b]pyridin-2-yl]-[1,2,4]triazolo[1,5-a]pyridine]: the melting point came out at 267.2 °C. In the series on Aβtotal (setting [1]), this molecule came in with an IC50 greater than 10000 nM. The IC50 in the series on Aβ42 (setting [1]) stood at 49 nM.
`Cc1cn(-c2ccc3[nH]c(-c4nc5n(n4)CCOC5c4cccc(F)c4C)cc3c2)cn1` (centres unmarked) [Compound 36, 8-(3-fluoro-2-methylphenyl)-5,6-dihydro-2-[5-(4-methyl-1H-imidazol-1-yl)-1H-indol-2-yl]-8H-[1,2,4]triazolo[5,1-c][1,4]oxazine] returned a melting point of 261.3 °C. Also, the IC50 with Aβtotal (setting [1]) was greater than 10000 nM. In the series with Aβ42 (setting [1]), the half-maximal inhibitory concentration (IC50) worked out at 62 nM.
The molecule `N#Cc1ccc2[nH]c(-c3nc4n(n3)CCCC4c3ccccc3C(F)(F)F)nc2c1` (centres unmarked) [Compound 38, 2-[5,6,7,8-tetrahydro-8-[2-(trifluoromethyl)phenyl][1,2,4]triazolo[1,5-a]pyridin-2-yl]-1H-benzimidazole-5-carbonitrile] had a melting point of 252.2 °C. Also, the 50% inhibitory concentration (IC50) in the series with Aβtotal (setting [1]) was greater than 10000 nM. The molecule also returned an IC50 in the series with Aβ42 (setting [1]) of 871 nM.
Molecule `COc1c(C#N)ccc2[nH]c(-c3cn4c(n3)C(c3ccc(F)cc3C)OCC4)cc12` (centres unmarked) [Compound 48, 2-[8-(4-fluoro-2-methylphenyl)-5,6-dihydro-8H-imidazo[2,1-c][1,4]oxazin-2-yl]-4-methoxy-1H-indole-5-carbonitrile] displayed a melting point of 244.4 °C. The half-inhibitory concentration (IC50) in the series with Aβtotal (setting [2]) was greater than 10000 nM. Half-maximal inhibition in the series with Aβ42 (setting [2]) (IC50) was put at 1020 nM.
With `COc1c(C#N)ccc2[nH]c(-c3cn4c(n3)C(c3ccccc3Cl)OCC4)cc12` (centres unmarked) [Compound 51, 2-[8-(2-chlorophenyl)-5,6-dihydro-8H-imidazo[2,1-c][1,4]oxazin-2-yl]-4-methoxy-1H-indole-5-carbonitrile], the melting point is 255.6 °C. The molecule further yielded an IC50 with Aβtotal (setting [2]) greater than 10000 nM. Moreover, half-maximal inhibition in the series on Aβ42 (setting [2]) (IC50) was put at 708 nM.
On to `COc1c(C#N)ccc2[nH]c(-c3nc4n(n3)CCCC4(O)c3ccc(F)cc3C)cc12` (centres unmarked) [Compound 60, 2-[8-(4-fluoro-2-methylphenyl)-5,6,7,8-tetrahydro-8-hydroxy[1,2,4]triazolo[1,5-a]pyridin-2-yl]-4-methoxy-1H-indole-5-carbonitrile], for which the melting point came out at 287.1 °C. The same molecule had an IC50 in the series on Aβtotal (setting [1]) greater than 10000 nM. In addition, in the series on Aβ42 (setting [1]), 138 nM corresponded to half-maximal inhibition (IC50).
The corresponding values for `N#Cc1ccc2cc(-c3nc4n(n3)CCCC4c3ccccc3C(F)(F)F)[nH]c2c1` (centres unmarked) [Compound 61, 2-[5,6,7,8-tetrahydro-8-[2-(trifluoromethyl)phenyl][1,2,4]triazolo[1,5-a]pyridin-2-yl]-1H-indole-6-carbonitrile] are 175.7 °C, greater than 10000 nM and 3980 nM.
`N#Cc1ccc2[nH]c(-c3nc4n(n3)CCCC4c3ccccc3Cl)cc2c1` (centres unmarked) [Compound 62, 2-[8-(2-chlorophenyl)-5,6,7,8-tetrahydro[1,2,4]triazolo[1,5-a]pyridin-2-yl]-1H-indole-5-carbonitrile] yielded a melting point of 208.6 °C. The molecule further came in with an IC50 in the series with Aβtotal (setting [1]) greater than 10000 nM. The molecule also returned a half-maximal inhibitory concentration (IC50) with Aβ42 (setting [1]) of 245 nM.
As for `COc1ccccc1C1CCCn2cc(-c3cc4cc(C#N)ccc4[nH]3)nc21` (centres unmarked) [Compound 67, 2-[5,6,7,8-tetrahydro-8-(2-methoxyphenyl)imidazo[1,2-a]pyridin-2-yl]-1H-indole-5-carbonitrile], the melting point stood at 251 °C. The molecule also yielded an IC50 in the series with Aβtotal (setting [1]) greater than 10000 nM. Besides, the IC50 in the series with Aβ42 (setting [1]) was determined as 501 nM.
Consider `Cc1cc(F)ccc1C1CCCn2cc(-c3cc4cc(C#N)ncc4[nH]3)nc21` (centres unmarked) [Compound 72, 2-[8-(4-fluoro-2-methylphenyl)-5,6,7,8-tetrahydroimidazo[1,2-a]pyridin-2-yl]-1H-pyrrolo[2,3-c]pyridine-5-carbonitrile], for which the melting point amounted to 255.5 °C. Also, in the series on Aβtotal (setting [1]), the IC50 was greater than 10000 nM. In the series on Aβ42 (setting [1]), this molecule registered a half-maximal inhibitory concentration (IC50) of 126 nM.
For `COc1c(C#N)ccc2[nH]c(-c3cn4c(n3)COCC4c3ccccc3)cc12` (centres unmarked) [Compound 184, 2-(5,6-dihydro-5-phenyl-8H-imidazo[2,1-c][1,4]oxazin-2-yl)-4-methoxy-1H-indole-5-carbonitrile], the IC50 worked out at 5370 nM with Aβtotal (setting [1]) and 3090 nM with Aβ42 (setting [1]).

The values above are taken from patent publication US9115143B2, “Substituted indole derivatives as gamma secretase modulators” (Janssen Pharmaceuticals, Inc., priority 2011, dated 2015).
